Reference: PubChem BioAssay (NCI)
“And” between values parts separate entries of the source, which are not always exact repeats. Equal entries are not always repeated.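 48-hour exposure; five concentrations; linearly interpolated endpoints. GI50 is the concentration that inhibits growth by half. Definition used: TGI = concentration required for complete inhibition of growth.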

Key:
Test in all cases: NCI-60 cell line screen, 48 h
[1] = system: CCRF-CEM leukemia
[2] = system: HCC-2998 colon
[3] = system: A498 renal
[4] = system: SW-620 colon
[5] = system: MDA-MB-435
[6] = system: UACC-62 melanoma
[7] = system: SR leukemia
[8] = system: MDA-MB-231 breast
[9] = system: EKVX NSCLC
[10] = system: SNB-75 CNS
[11] = system: NCI-H23 lung
[12] = system: MOLT-4 leukemia
[13] = system: A549 NSCLC
[14] = system: T-47D breast
[15] = system: OVCAR-8 ovarian
[16] = system: IGROV1 ovarian
[17] = system: CAKI-1 renal
[18] = system: OVCAR-5 ovarian
[19] = system: RPMI-8226 leukemia
[20] = system: 786-0 renal
[21] = system: HOP-62 NSCLC
[22] = system: DU-145 prostate
[23] = system: NCI-H226 lung
[24] = system: HCT-15 colon
[25] = system: NCI/ADR-RES ovarian
[26] = system: SK-MEL-5 melanoma
[27] = system: K-562 leukemia
[28] = system: SK-OV-3 ovarian
[29] = system: HOP-92 NSCLC
[30] = system: SF-539 CNS
[31] = system: M14 melanoma
[32] = system: PC-3 prostate
[33] = system: UACC-257 melanoma
[34] = system: SK-MEL-28 melanoma
[35] = system: LOX IMVI melanoma
[36] = system: RXF 393 renal
[37] = system: OVCAR-4 ovarian
[38] = system: KM12 colon
[39] = system: MCF7 breast
[40] = system: COLO 205 colon
[41] = system: SN12C renal
[42] = system: NCI-H460 lung
[43] = system: ACHN renal
[44] = system: SNB-19 CNS
[45] = system: SF-268 CNS
[46] = system: UO-31 renal
[47] = system: HCT-116 colon
[48] = system: HS 578T breast
[49] = system: OVCAR-3 ovarian
[50] = system: SF-295 CNS
[51] = system: MALME-3M melanoma
[52] = system: U251 CNS
[53] = system: BT-549 breast
[54] = system: NCI-H522 lung
[55] = system: HT29 colon
[56] = system: TK-10 renal
[57] = system: HL-60(TB) leukemia
[58] = system: SK-MEL-2 melanoma

CCN1CCC(Nc2ccnc3cc(Cl)ccc23)CC1
GI50 [1]: 36.9 µM
TGI [1]: > 100 µM
GI50 [2]: 33.3 µM
TGI [2]: > 100 µM
GI50 [3]: 74.6 µM
TGI [3]: > 100 µM
GI50 [4]: 21.8 µM
TGI [4]: > 100 µM
GI50 [5]: 17.8 µM
TGI [5]: 55.5 µM
GI50 [6]: 19.2 µM
TGI [6]: 39.2 µM
GI50 [7]: 3.44 µM
TGI [7]: 28.2 µM
GI50 [8]: 19.7 µM
TGI [8]: > 100 µM
GI50 [9]: 35.2 µM
TGI [9]: > 100 µM
GI50 [10]: 18.4 µM
TGI [10]: 74.8 µM
GI50 [11]: 74.1 µM
TGI [11]: > 100 µM
GI50 [12]: 18.5 µM
TGI [12]: > 100 µM
GI50 [13]: 33.9 µM
TGI [13]: > 100 µM
GI50 [14]: 31.3 µM
TGI [14]: > 100 µM
GI50 [15]: 34.8 µM
TGI [15]: > 100 µM
GI50 [16]: 11.7 µM
TGI [16]: > 100 µM
GI50 [17]: 21.5 µM
TGI [17]: > 100 µM
GI50 [18]: 34.2 µM
TGI [18]: > 100 µM
GI50 [19]: 25.9 µM
TGI [19]: 78.3 µM
GI50 [20]: 32.4 µM
TGI [20]: > 100 µM
GI50 [21]: 21.9 µM
TGI [21]: > 100 µM
GI50 [22]: 36.5 µM
TGI [22]: > 100 µM
GI50 [23]: 39.1 µM
TGI [23]: > 100 µM
GI50 [24]: 30.1 µM
TGI [24]: > 100 µM
GI50 [25]: 44.8 µM
TGI [25]: > 100 µM
GI50 [26]: 16 µM
TGI [26]: 30.2 µM
GI50 [27]: 4.83 µM
TGI [27]: > 100 µM
GI50 [28]: > 100 µM
TGI [28]: > 100 µM
GI50 [29]: 45.3 µM
TGI [29]: > 100 µM
GI50 [30]: 15.8 µM
TGI [30]: 36 µM
GI50 [31]: 14.4 µM
TGI [31]: 29.3 µM
GI50 [32]: 24.9 µM
TGI [32]: > 100 µM
GI50 [33]: 17 µM
TGI [33]: 32.3 µM
GI50 [34]: 18.1 µM
TGI [34]: 33.5 µM
GI50 [35]: 26.1 µM
TGI [35]: > 100 µM
GI50 [36]: 32.9 µM
TGI [36]: > 100 µM
GI50 [37]: 55.7 µM
TGI [37]: > 100 µM
GI50 [38]: 25.2 µM
TGI [38]: > 100 µM
GI50 [39]: 28.2 µM
TGI [39]: > 100 µM
GI50 [40]: 12.5 µM
TGI [40]: 27.1 µM
GI50 [41]: 91.9 µM
TGI [41]: > 100 µM
GI50 [42]: 28.7 µM
TGI [42]: > 100 µM
GI50 [43]: 33.9 µM
TGI [43]: > 100 µM
GI50 [44]: 79.1 µM
TGI [44]: > 100 µM
GI50 [45]: 23.6 µM
TGI [45]: > 100 µM
GI50 [46]: 9.06 µM
TGI [46]: 29 µM
GI50 [47]: 8.82 µM
TGI [47]: > 100 µM
GI50 [48]: 17.1 µM
TGI [48]: 48.9 µM
GI50 [49]: 24.8 µM
TGI [49]: > 100 µM
GI50 [50]: 18 µM
TGI [50]: 53.6 µM
GI50 [51]: 20.7 µM
TGI [51]: 40.4 µM
GI50 [52]: 30.5 µM
TGI [52]: > 100 µM

Cc1ccc(Nc2nccc(N(C)c3ccc4c(C)n(C)nc4c3)n2)cc1S(N)(=O)=O
GI50 [1]: 4.37 µM and 7.01 µM and 8.07 µM
TGI [1]: > 100 µM
GI50 [53]: 1.7 µM and 1.46 µM and 5.02 µM
TGI [53]: 7.66 µM and > 10 µM and 36.6 µM
GI50 [2]: > 100 µM and 29.8 µM
TGI [2]: > 100 µM
TGI [4]: > 100 µM
GI50 [5]: 3.93 µM and 0.758 µM and 6.37 µM
TGI [5]: > 100 µM and > 10 µM and 34.4 µM
GI50 [7]: 4.08 µM and 3.49 µM and 5.95 µM
TGI [7]: > 100 µM and > 10 µM and 37.9 µM
GI50 [8]: 3.72 µM and 1.44 µM and 5.88 µM
TGI [8]: > 100 µM
GI50 [9]: 3.22 µM and 4.11 µM and 15.2 µM
TGI [9]: > 100 µM
GI50 [10]: 2.39 µM and 1.03 µM and 5.83 µM
GI50 [54]: 5.33 µM and 4 µM and 10.7 µM
TGI [54]: 39 µM and > 10 µM and 28 µM
GI50 [11]: 4.03 µM and 2.92 µM and 6.49 µM
TGI [11]: > 100 µM and > 10 µM and 93.1 µM
GI50 [12]: 4 µM and 2.26 µM and 5.27 µM
TGI [12]: 24 µM and > 10 µM and 47.1 µM
GI50 [13]: 4.63 µM and 3.58 µM and 10 µM
TGI [13]: > 100 µM
GI50 [14]: 3.91 µM and 1.58 µM and 3.98 µM
GI50 [15]: 4.8 µM and 3.61 µM and 5.04 µM
TGI [15]: > 100 µM
TGI [16]: > 100 µM
GI50 [17]: 1.43 µM and 4.39 µM
TGI [17]: > 100 µM
GI50 [18]: 1.43 µM and 6.49 µM
TGI [18]: > 100 µM
GI50 [19]: 10.8 µM and 2.61 µM and 6.49 µM
TGI [19]: > 100 µM and > 10 µM and 31.6 µM
GI50 [55]: 4.03 µM and 0.49 µM and 4.68 µM
TGI [55]: > 100 µM
GI50 [20]: 4.03 µM and 2.8 µM and 5.96 µM
TGI [20]: > 100 µM
GI50 [21]: 8.64 µM and 1.51 µM and 11.7 µM
TGI [21]: > 100 µM and > 10 µM and 42.5 µM
GI50 [22]: 5.21 µM and 5.4 µM and 11.5 µM
TGI [22]: > 100 µM
GI50 [23]: 0.781 µM and 0.425 µM and 1.41 µM
TGI [23]: > 100 µM
GI50 [24]: 4.04 µM and 2.77 µM and 5.98 µM
TGI [24]: > 100 µM
GI50 [25]: 45.8 µM and 23.1 µM
TGI [25]: > 100 µM
GI50 [26]: 2.41 µM
TGI [26]: 10.8 µM
GI50 [56]: 2.05 µM and 9.87 µM
TGI [56]: > 10 µM and 77.3 µM
GI50 [27]: 3.05 µM and 0.454 µM and 4.21 µM
TGI [27]: > 100 µM
GI50 [28]: 2.93 µM and 4.9 µM and 4.24 µM
TGI [28]: 29.6 µM and > 10 µM and > 100 µM
GI50 [30]: 0.589 µM and 1.5 µM
GI50 [57]: 6.45 µM and 1.94 µM and 7.14 µM
TGI [57]: 30.6 µM and > 10 µM and 34 µM
GI50 [32]: 4.98 µM and 7.27 µM and 7.73 µM
TGI [32]: > 100 µM
TGI [33]: > 10 µM and 51.5 µM
TGI [34]: > 100 µM and > 10 µM and 84.2 µM
GI50 [58]: 4.67 µM and 1.46 µM and 4.62 µM
GI50 [35]: 2.88 µM and 0.479 µM and 3.93 µM
GI50 [36]: 2.43 µM and 0.634 µM and 2.41 µM
GI50 [37]: 3.43 µM and 0.681 µM and 4.42 µM
TGI [37]: > 100 µM
GI50 [38]: 5.01 µM and 2.6 µM and 5.56 µM
TGI [38]: > 100 µM and > 10 µM and 27 µM
GI50 [39]: 4.06 µM and 3.1 µM and 6.69 µM
TGI [39]: > 100 µM
GI50 [41]: 3.77 µM and 2.65 µM and 6.38 µM
TGI [41]: > 100 µM
GI50 [42]: 4.48 µM and 2.76 µM and 6.34 µM
TGI [42]: > 100 µM
GI50 [43]: 4.08 µM and 3.12 µM and 4.98 µM
TGI [43]: > 100 µM
TGI [44]: > 100 µM
GI50 [45]: 5.26 µM and 3.17 µM and 9.96 µM
TGI [45]: > 100 µM
GI50 [46]: 3.13 µM and 0.539 µM and 4.67 µM
TGI [46]: > 100 µM
GI50 [47]: 3.49 µM and 1.7 µM and 5.44 µM
TGI [47]: > 100 µM
GI50 [49]: 7.93 µM and 6.42 µM and 15.2 µM
TGI [49]: > 100 µM and > 10 µM and 77.9 µM
GI50 [50]: 3.57 µM and 2.78 µM and 9.92 µM
TGI [50]: > 100 µM
TGI [51]: > 74.4 µM
GI50 [52]: 3.35 µM and 0.95 µM and 8.12 µM
TGI [52]: > 100 µM
